# Molecular target: BRD4 in HeLa cells (Homo sapiens, UniProt O60885)
# Test: Western blot analysis of BRD4 degradation
# Format: cell-based
# Conditions: HeLa cells treated 24 h with varying concentrations; GAPDH loading control
structure (smiles),measurement,value
Cc1ncsc1-c1ccc(CNC(=O)[C@@H]2C[C@@H](O)CN2C(=O)[C@@H](NC(=O)COCCOCCOCCNC(=O)C[C@@H]2N=C(c3ccc(Cl)cc3)c3c(sc(C)c3C)-n3c(C)nnc32)C(C)(C)C)cc1 [MZ1],BRD4 degradation (western blot),dose dependent degradation of BRD4

# Reference: PMC7010361 (ACS chemical biology, 2019)
